Target: Dipeptidyl peptidase 4 (Rattus norvegicus, UniProt P14740)
Settings: po, read-out: Reduction
Description: Ex vivo DDP-IV inhibition after a 30 mpk oral administration to healthy rats compared to vehicle in an oral glucose tolerance test (OGTT)

Sequence of Dipeptidyl peptidase 4 (P14740 whole entry): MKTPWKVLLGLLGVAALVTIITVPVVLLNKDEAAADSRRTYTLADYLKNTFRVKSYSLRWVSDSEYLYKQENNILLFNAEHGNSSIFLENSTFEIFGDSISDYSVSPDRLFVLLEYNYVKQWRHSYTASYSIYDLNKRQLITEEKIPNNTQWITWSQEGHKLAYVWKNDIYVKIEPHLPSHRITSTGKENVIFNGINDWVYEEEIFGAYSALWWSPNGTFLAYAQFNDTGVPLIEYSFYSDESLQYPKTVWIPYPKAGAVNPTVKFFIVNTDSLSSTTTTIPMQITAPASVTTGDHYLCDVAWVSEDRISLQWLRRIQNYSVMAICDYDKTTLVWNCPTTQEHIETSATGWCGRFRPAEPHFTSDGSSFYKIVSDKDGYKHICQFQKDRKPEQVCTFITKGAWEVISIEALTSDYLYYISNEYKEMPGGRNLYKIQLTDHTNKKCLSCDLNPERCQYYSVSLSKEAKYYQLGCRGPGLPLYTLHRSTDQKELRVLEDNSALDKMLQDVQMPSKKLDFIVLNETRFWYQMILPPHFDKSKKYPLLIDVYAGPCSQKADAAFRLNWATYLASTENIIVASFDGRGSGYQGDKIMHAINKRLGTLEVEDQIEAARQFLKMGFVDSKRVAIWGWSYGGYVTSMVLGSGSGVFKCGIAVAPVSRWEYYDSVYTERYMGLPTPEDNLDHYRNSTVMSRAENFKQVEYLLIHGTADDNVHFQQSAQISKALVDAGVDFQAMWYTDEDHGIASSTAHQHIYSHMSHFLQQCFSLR

## NC(=O)c1ccc(OCC2(NCC(=O)c3ccsc3)CCCC2)cc1
  inhibition at 30 mg/kg: 24%

Source: ChEMBL document CHEMBL1137594, “Discovery of non-covalent dipeptidyl peptidase IV inhibitors which induce a conformational change in the active site” (Bioorg Med Chem Lett, 2007)
